In PubChem BioAssay (NCI) one finds TGI data, which are given here for eight compounds.

Among the test systems are A549 NSCLC; CAKI-1 renal; CCRF-CEM leukemia; HCC-2998 colon; HL-60(TB) leukemia; K-562 leukemia; LOX IMVI melanoma; MALME-3M melanoma; MDA-MB-231 breast; MDA-N; OVCAR-8 ovarian; PC-3 prostate; SW-620 colon; UACC-257 melanoma; ACHN renal; NCI-H460 lung; NCI-H522 lung; SK-MEL-2 melanoma; SNB-19 CNS; HS 578T breast.
Assay in all cases: inhibition of tumour cell growth, NCI panel, 48 h

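Values below derive from 48-hour exposures of cells grown in 96-well plates, with endpoints linearly interpolated between the two concentrations bracketing the appropriate inhibition level. TGI: concentration producing complete growth inhibition.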

As to `COc1ccc2nc3c([N+](=O)[O-])ccc(NCCN(C)C)c3c(NCCN(C)C)c2c1`, the TGI is 4.26 µM in the test on A549 NSCLC; greater than 10 µM with CAKI-1 renal; 1.78 µM in the test with CCRF-CEM leukemia; 2.25 µM with HCC-2998 colon; 3.02 µM in the test on HL-60(TB) leukemia; 3.42 µM in the test on K-562 leukemia. Besides, the TGI with LOX IMVI melanoma worked out at 3.11 µM; with MALME-3M melanoma, 7.69 µM; in the test with MDA-MB-231 breast it was 2.67 µM; with MDA-N it was 3.13 µM; with OVCAR-8 ovarian it was 3.04 µM; in the test on PC-3 prostate it was 2.02 µM. In addition, the figures for the TGI in the test on SW-620 colon and in the test on UACC-257 melanoma were 3.25 µM and greater than 10 µM, respectively.
With `CC(=O)O[C@H]1C(=O)[C@@]2(C)C(C(OC(=O)c3ccccc3)[C@]3(O)CC(OC(=O)C(O)C(NC(=O)c4ccccc4)c4cccc(Cl)c4)C(C)=C1C3(C)C)[C@]1(OC(C)=O)CO[C@@H]1C[C@@H]2O` (stereo partly drawn), the TGI was greater than 10 µM in the test with A549 NSCLC; greater than 10 µM with ACHN renal; greater than 10 µM in the test with CAKI-1 renal; greater than 10 µM with CCRF-CEM leukemia; greater than 10 µM in the test with HCC-2998 colon; 4.88 µM in the test with HL-60(TB) leukemia. In addition, the TGI is greater than 10 µM in the test on K-562 leukemia; greater than 10 µM in the test with LOX IMVI melanoma; greater than 10 µM in the test with MALME-3M melanoma; greater than 10 µM with MDA-MB-231 breast; 3.46 µM in the test with MDA-N; greater than 10 µM with NCI-H460 lung. The TGI in the test with NCI-H522 lung, in the test on OVCAR-8 ovarian, with PC-3 prostate, in the test with SK-MEL-2 melanoma, in the test on SNB-19 CNS and with SW-620 colon was greater than 10 µM in each case. For the same compound, in the test on UACC-257 melanoma, the TGI was greater than 10 µM.
For `Cc1ccc(S(=O)(=O)Oc2nc3nc4ccccc4nc3nc2OS(=O)(=O)c2ccc(C)cc2)cc1`, the TGI in the test on A549 NSCLC, with ACHN renal, in the test with CAKI-1 renal, with CCRF-CEM leukemia, with HCC-2998 colon and with HS 578T breast was greater than 100 µM each time. Also, the TGI in the test on MALME-3M melanoma, in the test with MDA-MB-231 breast, in the test with NCI-H460 lung, in the test with NCI-H522 lung, in the test with OVCAR-8 ovarian and in the test with PC-3 prostate was greater than 100 µM each time. Besides, the TGI in the test on SK-MEL-2 melanoma, with SNB-19 CNS and in the test with UACC-257 melanoma was greater than 100 µM throughout.
Take `c1ccc2c3nnc(c2c1)SCCCSc1nnc(c2ccccc12)SCCCS3`: the TGI in the test on A549 NSCLC, in the test with ACHN renal, in the test with CCRF-CEM leukemia, with HCC-2998 colon, with HL-60(TB) leukemia and in the test with K-562 leukemia was greater than 100 µM each time. For the same compound, the TGI was greater than 100 µM with LOX IMVI melanoma; 72.1 µM in the test with MALME-3M melanoma; 48.6 µM in the test on MDA-MB-231 breast; greater than 100 µM in the test on MDA-N; greater than 100 µM with NCI-H460 lung; greater than 100 µM with NCI-H522 lung. In addition, the TGI in the test on OVCAR-8 ovarian, with PC-3 prostate, in the test with SK-MEL-2 melanoma, in the test on SNB-19 CNS, in the test on SW-620 colon and in the test on UACC-257 melanoma was greater than 100 µM in each case.
For `COc1c(Br)cc(/C=C(\C#N)c2ccccn2)cc1Br`, the TGI with A549 NSCLC, in the test on ACHN renal, in the test on CAKI-1 renal, in the test with CCRF-CEM leukemia, with HCC-2998 colon and in the test on HL-60(TB) leukemia was greater than 100 µM in each case. Moreover, the TGI in the test on K-562 leukemia, in the test with MALME-3M melanoma, with NCI-H460 lung, in the test with NCI-H522 lung, in the test with OVCAR-8 ovarian and in the test with PC-3 prostate was greater than 100 µM throughout. Also, the TGI in the test with SK-MEL-2 melanoma is 41.8 µM; with SNB-19 CNS, greater than 100 µM; in the test with SW-620 colon, greater than 100 µM; in the test with UACC-257 melanoma, greater than 100 µM.
On to `O=c1c2n[nH]nc2nc2n1CC(c1ccccc1)S2` (stereo not drawn), for which the TGI in the test with A549 NSCLC was greater than 100 µM; with ACHN renal, greater than 100 µM; in the test on CAKI-1 renal, 77.6 µM; in the test with CCRF-CEM leukemia, greater than 100 µM; in the test on HCC-2998 colon, greater than 100 µM; in the test with HL-60(TB) leukemia it was greater than 100 µM. The TGI in the test with K-562 leukemia, in the test with LOX IMVI melanoma, with MALME-3M melanoma, in the test with MDA-MB-231 breast, with MDA-N and with NCI-H460 lung was greater than 100 µM each time. Further, the TGI in the test with OVCAR-8 ovarian, with SNB-19 CNS, in the test on SW-620 colon and in the test on UACC-257 melanoma was greater than 100 µM throughout.
On to `CCn1c(O)c(C=Nc2ccccc2)s/c1=N/Nc1nc(-c2ccc(O)c(O)c2)cs1`, for which the TGI in the test with A549 NSCLC is greater than 100 µM; with ACHN renal it was greater than 100 µM; in the test on CAKI-1 renal, greater than 100 µM; in the test with CCRF-CEM leukemia it was 57 µM; in the test on HL-60(TB) leukemia, 6.04 µM; in the test on HS 578T breast, greater than 100 µM. Moreover, the TGI with K-562 leukemia is 26.5 µM; with LOX IMVI melanoma it was greater than 100 µM; in the test with MALME-3M melanoma, greater than 100 µM; with MDA-MB-231 breast, greater than 100 µM; in the test with NCI-H460 lung, greater than 100 µM; in the test with NCI-H522 lung, 98.2 µM. For the same compound, the TGI with OVCAR-8 ovarian, with PC-3 prostate, in the test with SK-MEL-2 melanoma, in the test on SNB-19 CNS, with SW-620 colon and with UACC-257 melanoma was greater than 100 µM throughout.
`O=C(N/N=C/c1ccc(Cl)cc1)c1ccccc1Nc1ccccc1C(=O)N/N=C/c1ccc(Cl)cc1`: the TGI in the test on A549 NSCLC, with ACHN renal, in the test with CAKI-1 renal, in the test with CCRF-CEM leukemia, with HCC-2998 colon and in the test with K-562 leukemia was greater than 100 µM throughout. In addition, the TGI in the test on LOX IMVI melanoma, in the test on MALME-3M melanoma, in the test with MDA-MB-231 breast, with MDA-N, in the test on NCI-H460 lung and in the test with OVCAR-8 ovarian was greater than 100 µM throughout. Also, the TGI with PC-3 prostate, in the test on SK-MEL-2 melanoma, with SNB-19 CNS, in the test with SW-620 colon and in the test with UACC-257 melanoma was greater than 100 µM throughout.
